This test can be described thus: Radical addition of an unstable nitrogen:peroxide radical (immobilized activated amine, butanone peroxide, xylene), measured by HPLC. The note with it: control anti-oxidant in xylene, same conditions. On the procedure: An unstable nitrogen radical was made by adding butanone peroxide to nitrogen immobilized on a solid substrate in the presence of either C70, C60 or, as a control, the anti-oxidant Vitamin E in xylene. Radical addition of the substrate to the immobilized, activated amine is measured by HPLC. […] 74% of the C70 was bound to the nitrogen while only 27% of the C60 was bound.

The text below walks through data of patent US8241648B2, “Amphiphilic or lipophilic polar functionalized fullerenes and their uses” (Luna Innovations Incorporated, priority 2007, dated 2012).

For Vitamin E, the “reaction with the unstable nitrogen radical” value was “did not react at all”.
